Measured values published in patent publication US8445500B2, “Pesticidal compositions” (Dow AgroSciences, LLC., priority 2007, dated 2013).

What was measured:
Format in all cases: in vivo
[1] = system: Tobacco Budworm Heliothis virescens; assay: Insecticidal assay 2, tobacco budworm, 96-well diet plate; conditions: H. virescens eggs and early instars; 2 microliters of 4 micrograms per microliter in DMSO per well on diet; 200 ppm piperonyl butoxide co-applied; assessed after 6 days at 29° C.
Experimental: 2. Insecticidal Assay for Tobacco Budworm Heliothis virescens:
Objective: To evaluate the insecticidal activity of compounds against H. virescens eggs and early instars through contact and ingestion.
Test unit preparation: A robotic system dispenses 150 microliters of freshly prepared artificial lepidopteran diet into each well of a 96-well microtiter plate. The plates are held overnight at 22° C. to allow proper cooling and drying prior to treatment and infestation.
Compound formulation and application: Compounds are formulated in dimethyl sulfoxide at 4-micrograms per microliter. A robotic system automatically dispenses 2 microliters of each of the compound solutions into individual wells of the prepared test units. Each treatment is replicated 6 times. As part of the application process, a 200 ppm concentration of the commonly used synergist, piperonyl butoxide is co-applied to each well to increase the sensitivity of this assay. After application, plates are allowed to dry 5-6 hours in a fume hood. When dry, the plates are covered with a matching lid and held overnight in a sealed container prior to infestation.
Infestation: One day after application, each treated well is infested with 3-5, tobacco budworm eggs.
Holding and assessment: Once infested, the plates are covered with a clear plastic lid. The plates are stacked and held in an incubator at 29° C. […]

[2] = system: Green Peach Aphid Myzus persicae; assay: Insecticidal assay 15, green peach aphid, foliar spray on cabbage seedlings; conditions: M. persicae on cabbage seedlings; 50 and 5 parts per million spray solutions; assessed 3 days after treatment
Experimental: 15. Insecticidal Assay for Green Peach Aphid Myzus persicae:
Objective: To assess the insecticidal activity of compounds against M. persicae through contact and ingestion.
Formulation and application: One (1) milligram of each technical synthetic organic compound was dissolved in 1 milliliters of a 90:10 acetone:ethanol solvent. This 1 milliliter of chemical solution was added to 19 milliliters of distilled water containing 0.05% Tween 20 surfactant to produce a 50 parts per million spray solution. A 5 part per million solution was then prepared from the 50 part per million stock.
Test unit preparation and infestation: Cabbage seedlings, with 2 to 3 first true leaves emerged (12 days after planting) are culled to 1 plant per 3 inch pot. Treatments consisted of 4 replicates. Four days prior to application, heavily infested colony turnip leaves are shaken above the untreated plants. Shaking dislodges the aphids and they migrate to succulent plant material. Plants are examined to ensure even infestation prior to application.
Application: The plants are sprayed on both sides of all leaves with a hand-held atomizing sprayer until solutions are completely used. […]
Holding and assessment: The plants are allowed to air dry and are then held for 3 days in a controlled room at 26° C. and 40% relative humidity. 3 days after treatment the aphids are assessed for insecticidal effects.

[3] = system: Large Milkweed Bug Oncopeltus fasciatus; assay: Insecticidal assay 6, large milkweed bug, 96-well diet plate; conditions: O. fasciatus second instar; 2 microliters of 4-microgram/microliter in DMSO per well on diet; assessed after 6 days at 29° C.
Experimental: 6. Insecticidal Assay for Large Milkweed Bug Oncopeltus fasciatus:
Objective: To assess the insecticidal activity of compounds against O. fasciatus through contact and ingestion.
Test unit preparation: A robotic system dispenses 100 microliters of freshly prepared artificial diet into each well of a 96-well microtiter plate. The plates are held overnight at 22° C. to allow proper cooling and drying prior to treatment and infestation.
Compound formulation and application: Compounds are formulated in dimethyl sulfoxide at 4-microgram/microliter. A robotic system automatically dispenses 2 microliters of each of the experimental compound solutions into individual wells of the prepared test units. There are 6 replicates per treatment. After application, plates are allowed to dry 5-6 hours in a fume hood. When dry, the plates are covered with a matching lid and held overnight in a sealed container prior to infestation.
Infestation: One day after application, each treated well is infested with 3-5 second instar milkweed bugs.
Holding and assessment: Once infested, the plates are covered with a clear plastic lid. The plates are then stacked and held in an incubator at 29° C. After 6 days, each well is examined by means of a dissecting microscope for insecticidal effect.

[4] = system: Corn Earworm Helicoverpa zea; assay: Insecticidal assay 11, corn earworm, 128 well bioassay trays; conditions: H. zea second instar; 50 microliters of 1 milligram per milliliter stock or serial dilutions on diet per well; assessed 5 days after infestation
Experimental: 11. Insecticidal Assay for Corn Earworm Helicoverpa zea:
Objective: To assess the insecticidal activity of compounds against H. zea, through contact and ingestion.
Test unit preparation: 128 well bioassay trays are prepared by injecting each well with approximately 1 milliliter of prepared lepidopteran diet. Trays are allowed to dry prior to use.
Compound formulation and application: A 1 milligram per milliliter, stock solution is prepared for each compound by adding 2 milliliters of acetone/water diluent (9:1) to a vial containing 2 milligrams of technical compound. From this stock solution, additional doses may be produced through serial dilution. Once the appropriate concentrations have been prepared, 50 microliters of each solution is applied to the surface of the diet in each of 8 wells. Upon completing application, the trays are allowed to dry.
Infestation: Once dry, each well is infested with a single second instar corn earworm. Infested wells are sealed with self sticking, ventilated plastic covers.
Holding and assessment: After infestation and sealing, the trays are placed in a growth chamber at 25 C and 40% relative humidity. 5 days after infestation the larvae are assessed for insecticidal effects.

[5] = system: Cabbage Looper Tricoplusia ni; assay: Insecticidal assay 9, cabbage looper, cabbage leaf disc dip; conditions: T. ni second instar; cabbage leaf discs dipped in 400 ppm and 25 ppm solutions; assessed 5 days after infestation
Experimental: 9. Insecticidal Assay for Cabbage Looper Tricoplusia ni:
Objective: To assess the insecticidal activity of compounds against T. ni through contact and ingestion.
Formulation and application: Eight milligrams of technical compound is dissolved in 20 milliliters of 2:1 acetone:tap water diluent to form a 400 ppm solution. An aliquot of this solution is also used to prepare a 25 parts per million concentration. 3.5 centimeter diameter leaf discs cut from cabbage leaves are dipped into each solution until thoroughly wet. Each treatment is replicated 10 times. After air-drying, the treated discs are placed individually into one-ounce plastic cups.
Infestation: Once the leaf discs have dried, a single second instar cabbage looper is place on the cabbage disc in each cup.
Holding and assessment: Treated and infested cups or are capped and then held in a chamber at 25° C. and 50% relative humidity, 14-hours light:10-hours dark. 5 days after infestation the larvae are assessed for insecticidal effects.

Measured: insecticidal activity

N#Cc1c(NNc2c(Cl)cc(C(F)(F)F)cc2Cl)nc(C(F)(F)F)nc1C(F)(F)F [Compound 11, 4-[N′-(2,6-dichloro-4-trifluoromethyl-phenyl)-hydrazino]-2,6-bis-trifluoromethyl-pyrimidine-5-carbonitrile]
significant insecticidal activity: all assays above
